Where “and” joins values, the source holds several entries; their conditions need not be identical. Equal values may be shown once. Entries after “also recorded” stand apart in the source; their conditions may differ. Read-outs that look alike come from different tables or passages of the source.
Legend:
Assay type in all cases: cell-based
[1] = target: T1, Human Nav1.9 (Homo sapiens, UniProt Q9UI33); experiment: PatchXpress whole-cell voltage clamp, inhibition of human Nav1.9 (+β1/β2) currents in HEK-293 cells; design: key to Activity on human Nav1.9 at single concentration: NA = not active; details: for Increase in potency at the most depolarized membrane potential: -90 mV vs -140 mV (resting to half-inactivated channels)
T1 construct: expressed in transfected cells; host or cells: HEK-293 stably expressing human β1/β2

[2] = target: T2, Human Nav1.9 F1592A/Y1599A (Homo sapiens, UniProt Q9UI33, F1592A/Y1599A); experiment: PatchXpress whole-cell voltage clamp, inhibition of the human Nav1.9 F1592A/Y1599A local anesthetic site mutant in HEK-293 cells; details: for IC50: read-out: IC50 for inhibition of human Nav1.9 F1592A/Y1599A (LAM)
T2 construct: expressed in transfected cells; host or cells: HEK-293-β1/β2

[3] = target: T3, Nav1.9 K799N (Homo sapiens, UniProt Q9UI33, K799N); experiment: PatchXpress whole-cell voltage clamp, inhibition of the human Nav1.9 K799N mutant in HEK-293 cells; details: for IC50: protocol of Fig 2
T3 construct: expressed in transfected cells; host or cells: HEK-293-β1/β2

[4] = target: T4, Human Nav1.7 (Homo sapiens, UniProt Q15858); experiment: PatchXpress whole-cell voltage clamp, inhibition of human Nav1.7 in HEK-293 cells
T4 construct: expressed in transfected cells; host or cells: HEK-293-β1/β2

[5] = target: T5, Nav1.7 N945K (Homo sapiens, UniProt Q15858, N956K); experiment: PatchXpress whole-cell voltage clamp, inhibition of the human Nav1.7 N945K mutant in HEK-293 cells
T5 construct: expressed in transfected cells; host or cells: HEK-293-β1/β2

[6] = target: Human Nav1.8 (Homo sapiens, UniProt Q9Y5Y9); experiment: Whole-cell voltage clamp, inhibition of human Nav1.8; details: ~50% inactivated
[7] = target: T6, Mouse Nav1.9 (Mus musculus, UniProt Q9R053); experiment: PatchXpress whole-cell voltage clamp, inhibition of mouse Nav1.9 (+mouse β1/β2) in HEK-293 cells
T6 construct: expressed in transfected cells; host or cells: HEK-293-mouse β1/β2

[8] = target: T7, Rat Nav1.9 (Rattus norvegicus, UniProt O88457); experiment: PatchXpress whole-cell voltage clamp, inhibition of rat Nav1.9 (+rat β1/β2) in HEK-293 cells
T7 construct: expressed in transfected cells; host or cells: HEK-293-rat β1/β2

[9] = holding potential -120 mV (~25% inactivation), 40 ms step to -40 mV every 20 s, HEK-293 + β1/β2, 500 μM GTP-γ-S in pipette, read-out: IC50 for inhibition of human Nav1.9
[10] = Nav1.9 F1592A/Y1599A vs Nav1.9 WT

T1 sequence (Q9UI33 whole entry): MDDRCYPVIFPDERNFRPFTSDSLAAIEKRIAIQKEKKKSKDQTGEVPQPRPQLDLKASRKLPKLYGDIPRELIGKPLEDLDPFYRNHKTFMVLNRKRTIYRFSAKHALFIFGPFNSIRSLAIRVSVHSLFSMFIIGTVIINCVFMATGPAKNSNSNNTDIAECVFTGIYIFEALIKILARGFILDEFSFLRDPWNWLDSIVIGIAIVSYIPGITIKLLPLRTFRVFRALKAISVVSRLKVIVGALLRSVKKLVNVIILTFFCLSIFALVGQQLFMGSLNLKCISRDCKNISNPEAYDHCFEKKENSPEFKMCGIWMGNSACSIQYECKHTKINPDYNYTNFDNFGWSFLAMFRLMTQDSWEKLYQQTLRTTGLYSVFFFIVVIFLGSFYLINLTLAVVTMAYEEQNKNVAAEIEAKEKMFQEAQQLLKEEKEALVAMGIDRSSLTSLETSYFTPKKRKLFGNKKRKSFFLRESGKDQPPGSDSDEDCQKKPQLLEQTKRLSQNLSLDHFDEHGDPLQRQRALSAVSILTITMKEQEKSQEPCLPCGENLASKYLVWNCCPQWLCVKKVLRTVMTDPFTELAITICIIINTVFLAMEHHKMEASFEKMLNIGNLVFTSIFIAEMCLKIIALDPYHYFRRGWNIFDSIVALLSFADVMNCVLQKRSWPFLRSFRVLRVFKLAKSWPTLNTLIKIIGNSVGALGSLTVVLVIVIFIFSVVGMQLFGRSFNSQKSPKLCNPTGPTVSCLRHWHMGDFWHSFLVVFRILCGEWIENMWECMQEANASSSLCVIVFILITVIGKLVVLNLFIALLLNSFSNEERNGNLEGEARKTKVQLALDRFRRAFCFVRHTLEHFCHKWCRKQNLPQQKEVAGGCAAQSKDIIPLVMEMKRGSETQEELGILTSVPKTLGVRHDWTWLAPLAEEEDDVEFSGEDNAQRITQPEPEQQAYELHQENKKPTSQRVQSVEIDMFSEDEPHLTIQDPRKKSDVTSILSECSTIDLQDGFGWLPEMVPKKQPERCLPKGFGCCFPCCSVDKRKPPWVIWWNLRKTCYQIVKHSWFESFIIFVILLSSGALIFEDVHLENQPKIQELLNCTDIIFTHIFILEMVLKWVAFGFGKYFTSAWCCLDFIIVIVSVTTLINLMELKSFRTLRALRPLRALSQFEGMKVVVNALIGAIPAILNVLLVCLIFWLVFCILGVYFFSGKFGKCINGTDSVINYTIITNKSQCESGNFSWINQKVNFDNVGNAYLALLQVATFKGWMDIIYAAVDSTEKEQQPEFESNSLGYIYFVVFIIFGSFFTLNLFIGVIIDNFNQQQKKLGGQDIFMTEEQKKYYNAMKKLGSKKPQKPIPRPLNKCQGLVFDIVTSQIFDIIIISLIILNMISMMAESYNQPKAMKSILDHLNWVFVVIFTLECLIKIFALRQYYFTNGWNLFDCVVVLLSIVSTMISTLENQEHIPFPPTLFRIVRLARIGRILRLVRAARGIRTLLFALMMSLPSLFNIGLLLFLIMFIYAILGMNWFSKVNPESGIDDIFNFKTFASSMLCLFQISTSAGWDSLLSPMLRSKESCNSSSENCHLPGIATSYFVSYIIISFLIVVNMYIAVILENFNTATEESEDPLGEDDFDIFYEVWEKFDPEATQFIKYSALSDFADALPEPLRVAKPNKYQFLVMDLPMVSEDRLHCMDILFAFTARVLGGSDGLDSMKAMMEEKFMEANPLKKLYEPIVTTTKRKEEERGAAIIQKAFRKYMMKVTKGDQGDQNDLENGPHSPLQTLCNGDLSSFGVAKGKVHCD
T1 sequence (Q07699 19-218 partner): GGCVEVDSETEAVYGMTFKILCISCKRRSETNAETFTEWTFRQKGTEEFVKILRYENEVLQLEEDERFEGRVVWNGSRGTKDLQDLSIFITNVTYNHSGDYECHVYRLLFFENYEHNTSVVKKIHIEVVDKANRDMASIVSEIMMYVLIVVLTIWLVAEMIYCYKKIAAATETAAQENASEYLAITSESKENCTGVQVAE
T3 sequence (Q9UI33 whole entry K799N): as the sequence (Q9UI33 whole entry) above, with K799N counted along it
T3 sequence (Q07699 19-218 partner): as the sequence (Q07699 19-218 partner) above
T2 sequence (Q9UI33 whole entry F1592A/Y1599A): as the sequence (Q9UI33 whole entry) above, with F1592A, Y1599A counted along it
T2 sequence (Q07699 19-218 partner): as the sequence (Q07699 19-218 partner) above
T5 sequence (Q15858 1-1977 isoform Q15858-3 N945K): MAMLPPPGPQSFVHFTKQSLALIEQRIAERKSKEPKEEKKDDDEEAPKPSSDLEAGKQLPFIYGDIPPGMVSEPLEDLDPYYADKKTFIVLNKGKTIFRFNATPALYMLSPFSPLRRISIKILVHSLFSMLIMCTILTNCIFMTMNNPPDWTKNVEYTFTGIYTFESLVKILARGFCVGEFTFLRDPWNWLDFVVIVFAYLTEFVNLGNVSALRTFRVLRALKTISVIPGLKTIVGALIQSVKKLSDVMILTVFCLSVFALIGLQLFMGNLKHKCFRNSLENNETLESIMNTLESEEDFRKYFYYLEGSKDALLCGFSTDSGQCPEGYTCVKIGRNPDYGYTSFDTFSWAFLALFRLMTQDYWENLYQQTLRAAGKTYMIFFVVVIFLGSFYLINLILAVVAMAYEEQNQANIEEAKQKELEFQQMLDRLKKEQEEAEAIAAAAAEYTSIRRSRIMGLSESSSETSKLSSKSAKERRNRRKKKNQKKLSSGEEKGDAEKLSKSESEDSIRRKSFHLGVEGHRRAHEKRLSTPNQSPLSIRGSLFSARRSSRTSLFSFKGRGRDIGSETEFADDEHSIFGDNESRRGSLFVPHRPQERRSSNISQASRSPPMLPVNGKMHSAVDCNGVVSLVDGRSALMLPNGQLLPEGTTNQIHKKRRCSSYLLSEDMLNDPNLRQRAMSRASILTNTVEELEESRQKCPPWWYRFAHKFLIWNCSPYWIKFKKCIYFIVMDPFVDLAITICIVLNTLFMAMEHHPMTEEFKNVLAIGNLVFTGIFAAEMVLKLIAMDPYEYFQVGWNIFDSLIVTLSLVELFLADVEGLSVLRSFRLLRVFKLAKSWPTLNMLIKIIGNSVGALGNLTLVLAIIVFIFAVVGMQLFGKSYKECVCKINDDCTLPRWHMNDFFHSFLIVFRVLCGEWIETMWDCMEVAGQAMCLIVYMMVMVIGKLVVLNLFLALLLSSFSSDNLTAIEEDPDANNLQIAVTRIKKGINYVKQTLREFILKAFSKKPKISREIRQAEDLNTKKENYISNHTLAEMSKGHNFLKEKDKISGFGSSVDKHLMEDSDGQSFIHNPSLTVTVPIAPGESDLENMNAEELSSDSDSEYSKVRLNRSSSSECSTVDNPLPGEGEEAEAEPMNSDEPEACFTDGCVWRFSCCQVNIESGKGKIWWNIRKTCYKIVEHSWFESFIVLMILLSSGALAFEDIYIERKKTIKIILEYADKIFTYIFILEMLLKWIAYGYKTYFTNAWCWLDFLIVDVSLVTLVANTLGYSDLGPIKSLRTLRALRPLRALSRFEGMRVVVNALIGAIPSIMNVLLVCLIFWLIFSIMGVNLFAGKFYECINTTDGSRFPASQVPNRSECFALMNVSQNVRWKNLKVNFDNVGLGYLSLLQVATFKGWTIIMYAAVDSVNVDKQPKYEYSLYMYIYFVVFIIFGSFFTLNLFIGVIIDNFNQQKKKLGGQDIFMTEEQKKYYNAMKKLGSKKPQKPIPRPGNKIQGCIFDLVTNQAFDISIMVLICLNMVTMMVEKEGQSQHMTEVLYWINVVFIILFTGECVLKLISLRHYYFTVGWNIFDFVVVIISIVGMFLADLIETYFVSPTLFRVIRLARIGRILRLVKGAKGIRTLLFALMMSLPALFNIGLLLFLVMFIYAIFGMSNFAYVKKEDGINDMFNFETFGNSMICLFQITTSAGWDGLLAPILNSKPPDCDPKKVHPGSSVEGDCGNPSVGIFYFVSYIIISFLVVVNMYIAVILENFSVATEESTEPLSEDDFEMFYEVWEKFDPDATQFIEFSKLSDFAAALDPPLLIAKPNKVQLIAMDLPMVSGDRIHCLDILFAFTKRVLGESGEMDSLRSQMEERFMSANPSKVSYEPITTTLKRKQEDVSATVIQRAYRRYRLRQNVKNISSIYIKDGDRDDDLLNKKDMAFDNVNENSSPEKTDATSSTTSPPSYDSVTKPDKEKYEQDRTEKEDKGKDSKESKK
T5 sequence (Q07699 19-218 partner): as the sequence (Q07699 19-218 partner) above
T5 sequence (O60939 30-215 partner): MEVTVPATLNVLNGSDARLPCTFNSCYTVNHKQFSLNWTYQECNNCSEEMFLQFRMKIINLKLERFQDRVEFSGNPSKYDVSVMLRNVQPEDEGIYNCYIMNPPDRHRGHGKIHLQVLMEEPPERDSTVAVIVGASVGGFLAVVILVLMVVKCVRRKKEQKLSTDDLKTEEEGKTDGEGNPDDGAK
T4 sequence (Q15858 1-1977 isoform Q15858-3): as the sequence (Q15858 1-1977 isoform Q15858-3 N945K) above, with K945N counted along it
T4 sequence (Q07699 19-218 partner): as the sequence (Q07699 19-218 partner) above
T4 sequence (O60939 30-215 partner): as the sequence (O60939 30-215 partner) above

How did the “Inhibition of human Nav1.9 at single concentration” value ([1]; 10 μM) turn out when `COc1cc(NC(=O)c2ccc(-c3ccc(Cl)cc3)o2)cc(OC)c1` [A-803467] was run?
The value was 30% @ 10 μM.

For `CN(C)CCC=C1c2ccccc2CCc2ccccc21` [Amitriptyline], which IC50 [1, 9] is on record?
The IC50 was 29 µM.

And the IC50 ([2]; same protocol as Nav1.9 WT)?
Its IC50 is 105 µM.

How did the “Effect of the K799N mutation on potency” value ([3]; Nav1.9 K799N vs Nav1.9 WT) turn out when `CCOC(=O)c1ccc(N)cc1` [Benzocaine] was run?
The value was “unaffected”.

And the IC50 ([3]; in figure)?
Its IC50 is 300 µM.

What about the IC50 [1, 9] of the same molecule?
Its IC50 is 351 µM.

What about the IC50 ([1]; in figure, holding potential -120 mV, read-out: IC50 for inhibition of human Nav1.9 WT) of the same molecule?
The IC50 was 400 µM.

What about the “Effect of the F1592A/Y1599A mutation on Nav1.9 inhibition” value (shortened to “Effect … on Nav1.9 inhibition”) [2, 10] of the same molecule?
Its value is “reduced”.

And the “Reduction in potency by the F1592A/Y1599A mutation” value [2, 10]?
Its value is 5 fold.

And the IC50 ([2]; in figure)?
The IC50 was 1800 µM.

What about the IC50 ([2]; same protocol as Nav1.9 WT) of the same molecule?
The IC50 was 1760 µM.

And the IC50 ([4]; in figure, read-out: IC50 for inhibition of Nav1.7 WT)?
The IC50 was 130 µM.

What about the IC50 ([4]; wild type, ~50% inactivated, read-out: IC50 for inhibition of human Nav1.7) of the same molecule?
Its IC50 is 133 µM.

What about the “Effect of the N945K mutation on sensitivity” value ([5]; Nav1.7 N945K vs Nav1.7 WT) of the same molecule?
Its value is “no shift; also recorded: unchanged”.

And the IC50 ([5]; in figure)?
Its IC50 is 180 µM.

For `CCCCN1CCCCC1C(=O)Nc1c(C)cccc1C` (centres unmarked) [Bupivacaine], which IC50 [1, 9] is on record?
The IC50 was 186 µM.

`[Cl][Cd][Cl]` [CdCl2] was tested. Which “Activity on human Nav1.9 at single concentration” value (shortened to “Activity”) ([1]; 100 μM) did it give?
The value was “NA @ 100 μM”.

With `O=C(NCC1CCCCN1)c1cc(OCC(F)(F)F)ccc1OCC(F)(F)F` (centres unmarked) [Flecainide] as the molecule, how does the IC50 [1, 9] read?
Its IC50 is 244 µM.

With `O=C(Nc1ccc(S(=O)(=O)Nc2nccs2)cc1)C(c1ccccc1)c1ccccc1` [ICA-121431] as the molecule, how does the “Activity” value ([1]; 10 μM) read?
The value was “NA @ 10 μM”.

How did the IC50 [1, 9] turn out when `Nc1nnc(-c2cccc(Cl)c2Cl)c(N)n1` [Lamotrigine] was run?
Its IC50 is 199 µM.

`CCN(CC)CC(=O)Nc1c(C)cccc1C` [Lidocaine] was tested. Which IC50 [1, 9] did it give?
Its IC50 is 356 µM.

And the “Effect … on Nav1.9 inhibition” value [2]?
The value was “reduced”.

What about the IC50 ([2]; same protocol as Nav1.9 WT) of the same molecule?
The IC50 was 5550 µM.

What does the source list for `Cc1cccc(C)c1OCC(C)N` (centres unmarked) [Mexiletine]?
IC50 [1, 9]: 270 µM; Effect of the F1592A/Y1599A mutation on Nav1.9 inhibition [2, 10]: reduced; IC50 ([2]; same protocol as Nav1.9 WT): 837 µM; IC50 [6]: 18 µM

Which “Activity” value ([1]; 10 μM) does the source give for `COCC(=O)O[C@]1(CCN(C)CCCc2nc3ccccc3[nH]2)CCc2cc(F)ccc2[C@@H]1C(C)C` [Mibefradil] here?
Its value is “NA @ 10 μM”.

For `COCCOC(=O)C1=C(C)NC(C)=C(C(=O)OC(C)C)C1c1cccc([N+](=O)[O-])c1` (centres unmarked) [Nimodipine], which IC50 [1, 9] is on record?
The IC50 was 33 µM.

With `CC(=O)Nc1cccc(Nc2ncnc(N3CCC(OCc4ccc(OC(F)(F)F)cc4)CC3)n2)c1C` [TC-N 1752] as the molecule, how does the “Decrease in potency by the K799N mutation” value ([3]; Nav1.9 K799N vs Nav1.9 WT) read?
Its value is 5.6 fold and ~ 6 fold.

What about the “Effect … on Nav1.9 inhibition” value [2, 10] of the same molecule?
Its value is “essentially abolished”.

For `NC1=N[C@H](O)[C@H]2[C@H]3O[C@]4(O)O[C@@H]([C@@H](O)[C@@]2(N1)[C@@H]4O)[C@]3(O)CO` [TTX, tetrodotoxin], which “Activity” value [1] is on record?
Its value is “NA @ 10 μM”.

What about the “Sensitivity of peak inward Nav1.9 current to inhibition” value [1] of the same molecule?
The value was “insensitive”.

For `CCCCNc1ccc(C(=O)OCCN(C)C)cc1` [Tetracaine], which “Increase in potency by the K799N mutation” value ([3]; Nav1.9 K799N vs Nav1.9 WT) is on record?
Its value is 3 fold.

What about the IC50 [3] of the same molecule?
The IC50 was 10.3 µM and 10 µM.

What about the “Increase in potency at the most depolarized membrane potential” value [1] of the same molecule?
Its value is roughly 3 fold.

What about the “Increase in potency at the most depolarized membrane potential” value ([1]; listed as tetracaine) of the same molecule?
Its value is “no more than 3 fold”.

And the IC50 ([1]; holding potential -90 mV, read-out: IC50 for inhibition of Nav1.9 at holding potential -90 mV)?
Its IC50 is 17 µM.

What about the IC50 ([1]; holding potential -100 mV, read-out: IC50 for inhibition of Nav1.9 at holding potential -100 mV) of the same molecule?
The IC50 was 22 µM.

And the IC50 [1, 9]?
Its IC50 is 31.7 µM and 32 µM.

And the IC50 ([1]; holding potential -120 mV, Fig 2B holding potential series, read-out: IC50 for inhibition of Nav1.9 at holding potential -120 mV)?
Its IC50 is 31 µM.

And the IC50 ([1]; holding potential -140 mV, read-out: IC50 for inhibition of Nav1.9 at holding potential -140 mV)?
Its IC50 is 54 µM.

And the IC50 ([2]; same protocol as Nav1.9 WT)?
Its IC50 is 177 µM.

And the IC50 [6]?
Its IC50 is 0.3 µM.

And the IC50 [7]?
Its IC50 is 12 µM.

And the “Decrease in sensitivity by the N945K mutation” value ([5]; Nav1.7 N945K vs Nav1.7 WT)?
Its value is 3 fold.

And the IC50 [8]?
Its IC50 is 7.6 µM.

— PMC4996523, “Biophysical and Pharmacological Characterization of Nav1.9 Voltage Dependent Sodium Channels Stably Expressed in HEK-293 Cells” (PLoS ONE, 2016)
